Series [1] has as its target T1, Na^+/H^+ exchanger of rabbit erythrocytes (Oryctolagus cuniculus, UniProt P23791).
T1 construct: endogenous in cells; host or cells: erythrocytes in whole blood from cholesterol-fed New Zealand White rabbits
The experiment in a line: Inhibition of the Na+/H+ exchanger of rabbit erythrocytes (amiloride-sensitive sodium influx, flame photometry). The series is classed as cell-based. Particulars: hyperosmolar salt/sucrose medium, pH 7.4, 37° C., Na^+ influx by flame photometry. From the text: New Zealand White rabbits (Ivanovas) were given a standard diet containing 2% cholesterol for six weeks in order to activate Na^+/H^+ exchange and thus to be able to use flame photometry to determine the Na^+ influx into the erythrocytes via Na^+/H^+ exchange. The blood was removed from the aural arteries and rendered incoagulable by the addition of 25 IU of potassium heparin per ml. One part of each sample was used for the duplicate determination of the hematocrit by centrifugation. Aliquots of in each case 100 μl were employed for measuring the initial content of Na^+ in the erythrocytes.
In order to determine the amiloride-sensitive sodium influx, 100 μl of each blood sample were in each case incubated, at pH 7.4 and 37° C., in 5 ml of a hyperosmolar salt/sucrose medium (mmol/l: 140 NaCl, 3 KCl, 150 sucrose, 0.1 ouabain, 20 tris(hydroxymethyl)aminomethane). The erythrocytes were then washed three times with ice cold MgCl2/ouabain solution (mmol/l: 112 MgCl2, 0.1 ouabain) and hemolyzed in 2.0 ml of distilled water. The intracellular content of sodium was determined by flame photometry.
The nett influx of Na^+ was calculated from the difference between the initial sodium values and the sodium content of the erythrocytes following incubation. The amiloride-inhibitable sodium influx was given by the difference in the sodium content of the erythrocytes following incubation with and without 3×10^−4 mol/l amiloride. The same procedure was also used in the case of the compounds according invention.

Structures can show the parent of a compound that is named as a salt.

T1 sequence (P23791 whole entry): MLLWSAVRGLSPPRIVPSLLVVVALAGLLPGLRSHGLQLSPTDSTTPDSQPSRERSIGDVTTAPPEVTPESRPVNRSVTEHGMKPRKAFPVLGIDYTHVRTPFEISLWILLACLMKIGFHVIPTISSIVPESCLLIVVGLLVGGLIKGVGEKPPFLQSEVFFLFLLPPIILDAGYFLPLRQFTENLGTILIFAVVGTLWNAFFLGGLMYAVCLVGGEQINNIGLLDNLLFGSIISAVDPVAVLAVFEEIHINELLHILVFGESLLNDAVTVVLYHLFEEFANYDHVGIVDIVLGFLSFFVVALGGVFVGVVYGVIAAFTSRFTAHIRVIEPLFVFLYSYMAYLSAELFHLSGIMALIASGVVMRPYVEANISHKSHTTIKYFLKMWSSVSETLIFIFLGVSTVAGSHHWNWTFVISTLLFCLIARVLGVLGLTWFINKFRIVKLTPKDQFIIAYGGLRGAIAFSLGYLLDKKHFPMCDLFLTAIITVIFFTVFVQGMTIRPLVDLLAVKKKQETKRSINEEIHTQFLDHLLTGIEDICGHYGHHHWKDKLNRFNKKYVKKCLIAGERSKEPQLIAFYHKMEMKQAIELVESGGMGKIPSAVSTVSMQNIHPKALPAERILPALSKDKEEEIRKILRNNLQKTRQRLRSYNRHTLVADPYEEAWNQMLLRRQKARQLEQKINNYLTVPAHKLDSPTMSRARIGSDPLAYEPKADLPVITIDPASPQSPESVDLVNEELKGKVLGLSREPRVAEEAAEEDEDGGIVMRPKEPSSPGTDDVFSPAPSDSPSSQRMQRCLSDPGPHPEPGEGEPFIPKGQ

The IC50 is the point on the concentration scale where inhibition reaches its midpoint. Regarding `N=C(NC(=O)c1ccc(-n2ccnc2)c(C(F)(F)F)c1)NC(=O)c1ccc(-n2ccnc2)c(C(F)(F)F)c1` [Example 3, Bis[4-(l-imidazolyl)-3-trifluoromethylbenzoyl]guanidine], the half-maximal inhibitory concentration (IC50) in series [1] is 5000 nM. What is called melting point is the temperature, or range, at which the solid turns liquid. Take `N=C(NC(=O)C1CCc2ccccc2C1)NC(=O)C1CCc2ccccc2C1` (stereo not shown) [Example 5, N,N′-Bis(1,2,3,4-tetrahydronaphthalene-2-carbonyl)guanidide]: the melting point was 99 °C. Moreover, the IC50 in series [1] came to 300 nM. For the compound `CC(Cc1cc(F)ccc1F)C(=O)NC(=N)NC(=O)C(C)Cc1cc(F)ccc1F` (stereo not shown) [Example 8, N,N′-Bis[3-(2,5-difluorophenyl)-2-methylpropionyl]guanidide], in series [1], the IC50 came to 300 nM. As for `CC(C)c1ccc(C(=O)NC(=N)NC(=O)c2ccc(C(C)C)c(S(C)(=O)=O)c2)cc1S(C)(=O)=O` [Example 1, Bis(3-methylsulfonyl-4-i-propylbenzoyl)guanidine], the melting point was in the range of 218 to 221 °C. The IC50 in series [1] was 10000 nM. Take `N=C(NC(=O)CCc1ccccc1C(F)(F)F)NC(=O)CCc1ccccc1C(F)(F)F` [Example 7, N,N′-Bis[3-(2-trifluoromethylphenyl)propionyl]guanidide]: the IC50 in series [1] is 2000 nM.

Regarding `Cl.N=C(NC(=O)c1ccc(F)c(C(F)(F)F)c1)NC(=O)c1ccc(-n2ccnc2)c(C(F)(F)F)c1` [Example 4, N-[4-(1-Imidazolyl)-3-trifluoromethylbenzoyl]-N′-(4-fluoro-3-trifluoromethylbenzoyl)guanidine Hydrochloride], the melting point was 217 to 218 °C (dec.). Besides, the IC50 in series [1] came to 3000 nM. Take `N=C(NC(=O)c1ccc(F)c(C(F)(F)F)c1)NC(=O)c1ccc(F)c(C(F)(F)F)c1` [Example 2, Bis(4-fluoro-3-trifluoromethylbenzoyl)guanidine]: the melting point is 143 to 145 °C. In addition, in series [1], the half-maximal inhibitory concentration (IC50) is 10000 nM. Regarding `N=C(NC(=O)CCc1ccccc1C(F)(F)F)NC(=O)CCc1ccccc1C(F)(F)F` (as salt: hydrochloride) [Example 7, N,N′-Bis[3-(2-trifluoromethylphenyl)propionyl]guanidide], the melting point amounted to 75 °C. Take `C/C(=C\c1ccccc1)C(=O)NC(=N)NC(=O)/C(C)=C/c1ccccc1` [Example 6, N,N′-Bis[(E)-2-methylcinnamoyl]guanidide]: in series [1], the IC50 worked out at 1100 nM.

The record behind these values is US6436999B1, “Diacyl-substituted guanidines, a process for their preparation, their use as medicine or diagnostic aid, and medicine containing them” (Hoechst Aktiengesellschaft, priority 1993, dated 2002).
